In patent US20160038526A1, “TREATMENT OF PROSTATE CANCER” (THOMAS JEFFERSON UNIVERSITY, priority 2012, published 2016):

Key:
cyclin D1 = assay: Expression of Stat5 target gene cyclin D1 in CWR22Rv1 and LNCaP cells (immunoblot); type: cell-based, human; details: 48 h or 25 μM over time
Procedure: Exponentially growing CWR22Rv1 and LNCaP cells were treated with N6BAP or the control compound C5 (Ctrl) for 48 h at concentrations indicated in FIG. 6 and whole cell lysates were immunoblotted with anti-cyclinD1 mAb. Exponentially growing CWR22Rv1 and LNCaP cells were treated with N6BAP or control compound C5 (Ctrl) at 25 μM for the periods of time indicated in FIG. 6, and whole cell lysates were immunoblotted with anti-cyclinD1 mAb or anti-Bcl-X1 pAb. Cell pellets were solubilized in lysis buffer [10 mM Tris-HCl (pH 7.6), 5 mM EDTA, 50 mM sodium chloride, 30 mM sodium pyrophosphate, 50 mM sodium fluoride, 1 mM sodium orthovanadate, 1% Triton X-100, 1 mM phenylmethylsulfonyl fluoride, 5 μg/ml aprotinin, 1 μg/ml pepstatin A, and […]], rotated end-over-end at 4° C. for 60 min, and insoluble material was pelleted at 12,000×g for 30 min at 4° C. The protein concentrations of clarified cell lysates were determined by simplified Bradford method (Bio-Rad Laboratories, Hercules, Calif.). The following primary antibodies were used for Western blotting, at the following concentrations: anti-β-actin pAb (1:4,000; Sigma), anti-cyclin D1 mAb (1:1000, BD Biosciences) and Bcl-xL pAb (1:1000, Cell Signaling, Danvers, Mass.).

Stat3 = Stat3 (Homo sapiens, UniProt P40763); assay: IL-6-induced Stat3 transcriptional activity, luciferase reporter in LNCaP cells; type: cell-based; details: 6.0 μM for 2 h, 50 ng/ml IL-6 for 16 h
Procedure: LNCaP prostate cancer cells were transiently co-transfected with pStat3, pIL-6-receptor (pIL-6R), pStat3-Luc and pRL-TK (Renilla luciferase). The cells were serum-starved for 20 h, pre-treated with N6BAP or the control compound C5 (Ctrl) at 6.0 μM for 2 h followed by stimulation with 50 ng/ml of IL-6 for 16 h. The relative luciferase activities were determined. S.E. values are indicated by bars.

LNCaP cells = assay: Cell viability, MTS metabolic activity assay, LNCaP; type: cell-based, human; details: 72 hours
Procedure: (§1) CWR22Rv1 prostate cancer cells were treated with N6BAP or the control compound C5 (Ctrl) at 25 μM concentration or vehicle for 24 h. Following trypan blue exclusion, the attached viable vs. de-attached dead cells were counted. […] The bars indicate mean±SD of triplicate wells. In another assay, CWR22Rv1, LNCaP and DU145 cells were treated with N6BAP, the control compound C5 (Ctrl) or vehicle at indicated concentrations. The fraction of alive cells was determined by MTS ([…]) metabolic activity assay (CellTiter 96® AQueous Assay kit). The results are shown in FIGS. 9C, 9D and 9E, respectively.

DU145 cells = assay: Cell viability, MTS metabolic activity assay, DU145; type: cell-based, human; details: DU145, 72 hours
Procedure: as §1

CWR22Rv1 cells = assay: Nucleosomal DNA fragmentation (nucleosomal ELISA) in CWR22Rv1 cells; type: cell-based, human; details: 24 μM N6BAP
[1] = test system: A549 human lung cancer cells; assay: Cell viability assay, A549; type: cell-based
Procedure: as §1
The procedure of Example 9 was followed, substituting cells of the following solid tumor cell lines for the cells treated in Example 9: A549 human lung cancer cells, CAPAN human pancreatic cancer cells, T47D human breast cancer cells, […], A2058 human melanoma and COS-7 monkey fibroblast cell lines.

Stat5a = molecular target: T1, Stat5a (Homo sapiens, UniProt P42229); assay: Stat5 dimerization assay (FLAG-/MYC-tagged Stat5a co-immunoprecipitation) in PC-3 cells; type: cell-based; design: expressed in transfected cells; host or cells: PC-3; details: 2 hours pretreatment, hPrl 10 nM 30 minutes
T1 sequence (P42229 1-794): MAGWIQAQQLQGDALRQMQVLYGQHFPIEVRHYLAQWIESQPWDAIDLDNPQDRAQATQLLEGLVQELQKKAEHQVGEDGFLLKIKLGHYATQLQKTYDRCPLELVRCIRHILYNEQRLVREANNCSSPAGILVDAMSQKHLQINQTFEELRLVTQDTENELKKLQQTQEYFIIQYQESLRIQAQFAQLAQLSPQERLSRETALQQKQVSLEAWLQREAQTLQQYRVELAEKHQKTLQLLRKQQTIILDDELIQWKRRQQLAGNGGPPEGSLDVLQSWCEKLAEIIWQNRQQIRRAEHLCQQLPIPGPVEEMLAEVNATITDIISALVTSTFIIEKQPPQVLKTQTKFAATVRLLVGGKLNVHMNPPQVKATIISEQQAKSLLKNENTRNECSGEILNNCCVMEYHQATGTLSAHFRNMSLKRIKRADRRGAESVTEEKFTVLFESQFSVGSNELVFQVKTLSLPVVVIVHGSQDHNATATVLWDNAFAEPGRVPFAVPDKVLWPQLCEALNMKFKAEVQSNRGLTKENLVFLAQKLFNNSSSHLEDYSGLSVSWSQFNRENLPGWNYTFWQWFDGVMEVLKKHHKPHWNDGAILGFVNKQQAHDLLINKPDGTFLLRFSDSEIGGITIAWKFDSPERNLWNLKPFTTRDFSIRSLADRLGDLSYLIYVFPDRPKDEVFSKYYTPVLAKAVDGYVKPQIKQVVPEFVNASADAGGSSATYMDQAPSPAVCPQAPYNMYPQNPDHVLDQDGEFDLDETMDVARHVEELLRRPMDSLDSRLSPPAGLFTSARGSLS
Procedure: FLAG-tagged Stat5a and MYC-tagged Stat5a were generated as follows. Plasmid pCMV3-FLAG-Stat5a, pCMV3-MYC-Stat5a and pPrlR were co-transfected using FuGENE6 (Roche) into PC-3 cells (2 μg of each plasmid per 1×10^7 cells). The cells were starved for 20 hours, pretreated with N6BAP for 2 hours, then stimulated with hPrl (10 nM) in RPMI 1640 without serum for 30 minutes. The cell lysates were immunoprecipitated with 25 μl anti-FLAG M2 […] affinity gel (2 μg/ml, Sigma), anti-MYC pAb (1 μg/ml, Upstate) or normal rabbit serum (NRS). The primary antibodies were used in the immunoblottings at the following concentrations: anti-FLAG pAb (1:1000; Stratagene), anti-MYC mAb (1:1000; Sigma), anti-Stat5a/b mAb (1:250) (Transduction Laboratories) detected by horseradish peroxidase-conjugated secondary antibodies.
Lanes 1, 2, 4, 6, 8, 10, 12, 14 and 16 represent cells stimulated with human prolactin (Prl) for 30 minutes which induces dimerization of Stat5. Two hours prior to Prl-stimulation, the cells had been treated with DMSO (lanes 1-4), the control compound C5 (lanes 5 and 6) or N6BAP (lanes 7-16) to test whether the Stat5a/b-inhibitor compound, N6BAP, would be able to inhibit dimerization of Stat5. […] It should be noted the drug effect in this study was not due to cell apoptosis induction, as the treatment time was only 2 hours. […]

Stat3, sequence (P40763 whole entry, species assumed): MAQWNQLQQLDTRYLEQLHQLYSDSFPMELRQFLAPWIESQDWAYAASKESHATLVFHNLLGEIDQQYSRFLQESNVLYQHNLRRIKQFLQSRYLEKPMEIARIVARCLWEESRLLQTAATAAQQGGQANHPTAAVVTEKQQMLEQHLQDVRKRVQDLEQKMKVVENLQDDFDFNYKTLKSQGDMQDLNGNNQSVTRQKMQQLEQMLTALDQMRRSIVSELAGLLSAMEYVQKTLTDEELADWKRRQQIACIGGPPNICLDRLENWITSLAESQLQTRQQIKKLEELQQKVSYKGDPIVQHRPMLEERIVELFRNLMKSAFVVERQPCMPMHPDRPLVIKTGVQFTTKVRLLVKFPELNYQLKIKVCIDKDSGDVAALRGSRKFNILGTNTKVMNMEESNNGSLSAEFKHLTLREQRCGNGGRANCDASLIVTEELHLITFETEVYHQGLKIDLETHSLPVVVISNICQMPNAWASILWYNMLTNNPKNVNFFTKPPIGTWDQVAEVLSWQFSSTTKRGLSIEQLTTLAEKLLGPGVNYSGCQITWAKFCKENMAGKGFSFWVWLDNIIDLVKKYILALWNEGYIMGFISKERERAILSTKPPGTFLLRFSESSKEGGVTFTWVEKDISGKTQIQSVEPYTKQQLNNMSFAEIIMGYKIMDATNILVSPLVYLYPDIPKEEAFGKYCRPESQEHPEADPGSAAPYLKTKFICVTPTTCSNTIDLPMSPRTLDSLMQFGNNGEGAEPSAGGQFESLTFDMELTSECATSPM

O=P(O)(O)OC[C@H]1O[C@@H](n2cnc3c(NCc4ccccc4)ncnc32)[C@H](O)[C@@H]1O [N6BAP, N^6-benzyladenosine-5′-monophosphate]
expression of cyclin D1 (cyclin D1): down-regulates expression | transcriptional activity of Stat3 (Stat3): does not inhibit the transcriptional activity of Stat3 | number of viable cells (LNCaP cells): decreases the number of viable cells | number of viable cells (DU145 cells): decreases the number of viable cells | DNA fragmentation (apoptosis) (CWR22Rv1 cells): N6BAP-induced DNA fragmentation | cell viability [1]: did not affect the viability | dimerization of Stat5a (Stat5a): effectively inhibited Stat5a dimerization
